Read-outs that look alike come from different tables or passages of the source. Non-standard residues stand in square brackets, D forms with d. Residues, ends and D or L forms follow the SMILES beside them. Cha = N[C@@H](CC1CCCCC1)C(=O)O
Columns and labels:
DR5 = settings: read-out: PADRE Class II Binding Affinities DR5
DR7 = settings: read-out: PADRE Class II Binding Affinities DR7
DQ3.1 = settings: for IC50: read-out: PADRE Class II Binding Affinities, Table VIII A

Row | SMILES | IC50 (DR5; Table VIII A) [nM] | IC50 (DR7; Table VIII A) [nM] | IC50 (DQ3.1) [nM] | further results
1 | CC(C)C[C@H](NC(=O)[C@@H](NC(=O)[C@H](C)NC(=O)[C@@H](NC(=O)[C@H](C)NC(=O)[C@H](C)NC(=O)[C@H](CC1CCCCC1)NC(=O)[C@H](C)NC(=O)[C@@H](C)N)C(C)C)[C@@H](C)O)C(=O)N[C@@H](CCCCN)C(=O)N[C@@H](C)C(=O)N[C@@H](C)C(=O)N[C@H](C)C(N)=O [Peptide 906.21] (H-[dA]A[Cha]AAVATLKAA[dA]-NH2; N-terminus and C-terminus assumed) | 3.2 | 42.4 |  | 
2 | CC(C)C[C@H](NC(=O)[C@@H](NC(=O)[C@H](C)NC(=O)[C@H](Cc1ccccc1)NC(=O)[C@H](C)NC(=O)[C@H](C)NC(=O)[C@H](CC1CCCCC1)NC(=O)[C@H](C)NC(=O)[C@@H](C)N)[C@@H](C)O)C(=O)N[C@@H](CCCCN)C(=O)N[C@@H](C)C(=O)N[C@@H](C)C(=O)N[C@H](C)C(N)=O [Peptide 906.22] (H-[dA]A[Cha]AAFATLKAA[dA]-NH2; N-terminus and C-terminus assumed) |  |  | 1880 | IC50 (DR5): 3.4 nM; IC50 (DR7): 59.4 nM
3 | CC(C)C[C@H](NC(=O)[C@@H](NC(=O)[C@H](CCCCN)NC(=O)[C@H](C)NC(=O)[C@H](C)NC(=O)[C@H](C)NC(=O)[C@H](CC1CCCCC1)NC(=O)[C@H](C)NC(=O)[C@@H](C)N)[C@@H](C)O)C(=O)N[C@@H](CCCCN)C(=O)N[C@@H](C)C(=O)N[C@@H](C)C(=O)N[C@H](C)C(N)=O [Peptide 906.23] |  |  | 26.1 | IC50 (DR5): 2.2 nM; IC50 (DR7): 29.6 nM
4 | CC(C)C[C@H](NC(=O)[C@@H](NC(=O)[C@H](CCC(=O)O)NC(=O)[C@H](C)NC(=O)[C@H](C)NC(=O)[C@H](C)NC(=O)[C@H](CC1CCCCC1)NC(=O)[C@H](C)NC(=O)[C@@H](C)N)[C@@H](C)O)C(=O)N[C@@H](CCCCN)C(=O)N[C@@H](C)C(=O)N[C@@H](C)C(=O)N[C@H](C)C(N)=O [Peptide 906.24] | 11.1 | 373 | 46.6 | 
5 | CC(C)C[C@H](NC(=O)[C@@H](NC(=O)[C@H](CCC(N)=O)NC(=O)[C@H](C)NC(=O)[C@H](C)NC(=O)[C@H](C)NC(=O)[C@H](CC1CCCCC1)NC(=O)[C@H](C)NC(=O)[C@@H](C)N)[C@@H](C)O)C(=O)N[C@@H](CCCCN)C(=O)N[C@@H](C)C(=O)N[C@@H](C)C(=O)N[C@H](C)C(N)=O [Peptide 906.25] | 3 |  | 42.5 | 
6 | CC(C)C[C@H](NC(=O)[C@@H](NC(=O)[C@@H](NC(=O)[C@H](C)NC(=O)[C@H](C)NC(=O)[C@H](C)NC(=O)[C@H](CC1CCCCC1)NC(=O)[C@H](C)NC(=O)[C@@H](C)N)C(C)C)[C@@H](C)O)C(=O)N[C@@H](CCCCN)C(=O)N[C@@H](C)C(=O)N[C@@H](C)C(=O)N[C@H](C)C(N)=O [Peptide 906.26] (H-[dA]A[Cha]AAAVTLKAA[dA]-NH2; N-terminus and C-terminus assumed) | 3.9 | 65.8 | 27.9 | 
7 | CC(C)C[C@H](NC(=O)[C@@H](NC(=O)[C@H](Cc1ccccc1)NC(=O)[C@H](C)NC(=O)[C@H](C)NC(=O)[C@H](C)NC(=O)[C@H](CC1CCCCC1)NC(=O)[C@H](C)NC(=O)[C@@H](C)N)[C@@H](C)O)C(=O)N[C@@H](CCCCN)C(=O)N[C@@H](C)C(=O)N[C@@H](C)C(=O)N[C@H](C)C(N)=O [Peptide 906.27] | 2.6 | 65.8 | 44.1 | 
8 | CC(C)C[C@H](NC(=O)[C@@H](NC(=O)[C@@H](NC(=O)[C@H](C)NC(=O)[C@H](C)NC(=O)[C@H](C)NC(=O)[C@H](CC1CCCCC1)NC(=O)[C@H](C)NC(=O)[C@@H](C)N)[C@@H](C)O)[C@@H](C)O)C(=O)N[C@@H](CCCCN)C(=O)N[C@@H](C)C(=O)N[C@@H](C)C(=O)N[C@H](C)C(N)=O [Peptide 906.28] | 5 | 69.4 | 28.5 | 
9 | C[C@H](NC(=O)[C@H](C)NC(=O)[C@H](C)NC(=O)[C@H](CC1CCCCC1)NC(=O)[C@H](C)NC(=O)[C@@H](C)N)C(=O)N[C@@H](C)C(=O)N[C@H](C(=O)N[C@@H](CCCCN)C(=O)N[C@@H](CCCCN)C(=O)N[C@@H](C)C(=O)N[C@@H](C)C(=O)N[C@H](C)C(N)=O)[C@@H](C)O [Peptide 906.29] (H-[dA]A[Cha]AAAATKKAA[dA]-NH2; N-terminus and C-terminus assumed) | 7.7 |  | 283 | Increase in DQ3.1 binding reactivity (DQ3.1; relative to parent 760.57): no reactivity was gained
10 | C[C@H](NC(=O)[C@H](C)NC(=O)[C@H](C)NC(=O)[C@H](CC1CCCCC1)NC(=O)[C@H](C)NC(=O)[C@@H](C)N)C(=O)N[C@@H](C)C(=O)N[C@H](C(=O)N[C@@H](CCC(N)=O)C(=O)N[C@@H](CCCCN)C(=O)N[C@@H](C)C(=O)N[C@@H](C)C(=O)N[C@H](C)C(N)=O)[C@@H](C)O [Peptide 906.31] | 11.8 | 100 | 52.6 | 
11 | CC(C)[C@H](NC(=O)[C@@H](NC(=O)[C@H](C)NC(=O)[C@H](C)NC(=O)[C@H](C)NC(=O)[C@H](C)NC(=O)[C@H](CC1CCCCC1)NC(=O)[C@H](C)NC(=O)[C@@H](C)N)[C@@H](C)O)C(=O)N[C@@H](CCCCN)C(=O)N[C@@H](C)C(=O)N[C@@H](C)C(=O)N[C@H](C)C(N)=O [Peptide 906.32] |  |  | 26 | IC50 (DR5): 4.2 nM; IC50 (DR7): 58.1 nM
12 | C[C@H](NC(=O)[C@H](C)NC(=O)[C@H](C)NC(=O)[C@H](CC1CCCCC1)NC(=O)[C@H](C)NC(=O)[C@@H](C)N)C(=O)N[C@@H](C)C(=O)N[C@H](C(=O)N[C@@H](Cc1ccccc1)C(=O)N[C@@H](CCCCN)C(=O)N[C@@H](C)C(=O)N[C@@H](C)C(=O)N[C@H](C)C(N)=O)[C@@H](C)O [Peptide 906.33] | 2.4 | 43.1 | 13.4 | 
13 | CC(C)C[C@H](NC(=O)[C@@H](NC(=O)[C@H](C)NC(=O)[C@H](C)NC(=O)[C@H](C)NC(=O)[C@H](C)NC(=O)[C@H](CC1CCCCC1)NC(=O)[C@H](C)NC(=O)[C@@H](C)N)[C@@H](C)O)C(=O)N[C@@H](CCC(=O)O)C(=O)N[C@@H](C)C(=O)N[C@@H](C)C(=O)N[C@H](C)C(N)=O [Peptide 906.35] | 10.5 |  | 39.5 | 
14 | CC(C)C[C@H](NC(=O)[C@@H](NC(=O)[C@H](C)NC(=O)[C@H](C)NC(=O)[C@H](C)NC(=O)[C@H](C)NC(=O)[C@H](CC1CCCCC1)NC(=O)[C@H](C)NC(=O)[C@@H](C)N)[C@@H](C)O)C(=O)N[C@@H](CCC(N)=O)C(=O)N[C@@H](C)C(=O)N[C@@H](C)C(=O)N[C@H](C)C(N)=O [Peptide 906.36] | 8.3 |  | 23.7 | 
15 | CC(C)C[C@H](NC(=O)[C@@H](NC(=O)[C@H](C)NC(=O)[C@H](C)NC(=O)[C@H](C)NC(=O)[C@H](C)NC(=O)[C@H](CC1CCCCC1)NC(=O)[C@H](C)NC(=O)[C@@H](C)N)[C@@H](C)O)C(=O)N[C@@H](Cc1ccccc1)C(=O)N[C@@H](C)C(=O)N[C@@H](C)C(=O)N[C@H](C)C(N)=O [Peptide 906.38] | 19.2 | 56.8 |  | 
16 | CC(C)C[C@H](NC(=O)[C@@H](NC(=O)[C@H](C)NC(=O)[C@H](C)NC(=O)[C@H](C)NC(=O)[C@H](C)NC(=O)[C@H](CC1CCCCC1)NC(=O)[C@H](C)NC(=O)[C@@H](C)N)[C@@H](C)O)C(=O)N[C@@H](CCCCN)C(=O)N[C@@H](CCC(=O)O)C(=O)N[C@@H](C)C(=O)N[C@H](C)C(N)=O [Peptide 906.41] (H-[dA]A[Cha]AAAATLKEA[dA]-NH2; N-terminus and C-terminus assumed) |  | 252 |  | 
17 | CC(C)C[C@H](NC(=O)[C@@H](NC(=O)[C@H](C)NC(=O)[C@H](C)NC(=O)[C@H](C)NC(=O)[C@H](C)NC(=O)[C@H](CC1CCCCC1)NC(=O)[C@H](C)NC(=O)[C@@H](C)N)[C@@H](C)O)C(=O)N[C@@H](CCCCN)C(=O)N[C@@H](CCC(N)=O)C(=O)N[C@@H](C)C(=O)N[C@H](C)C(N)=O [Peptide 906.42] (H-[dA]A[Cha]AAAATLKQA[dA]-NH2; N-terminus and C-terminus assumed) | 29.4 |  | 484 | 
18 | CC(C)C[C@H](NC(=O)[C@@H](NC(=O)[C@H](C)NC(=O)[C@H](C)NC(=O)[C@H](C)NC(=O)[C@H](C)NC(=O)[C@H](CC1CCCCC1)NC(=O)[C@H](C)NC(=O)[C@@H](C)N)[C@@H](C)O)C(=O)N[C@@H](CCCCN)C(=O)N[C@@H](Cc1ccccc1)C(=O)N[C@@H](C)C(=O)N[C@H](C)C(N)=O [Peptide 906.44] (H-[dA]A[Cha]AAAATLKFA[dA]-NH2; N-terminus and C-terminus assumed) | 104 | 25 |  | 
19 | CC(C)C[C@H](NC(=O)[C@@H](NC(=O)[C@H](C)NC(=O)[C@H](C)NC(=O)[C@H](C)NC(=O)[C@H](C)NC(=O)[C@H](CC1CCCCC1)NC(=O)[C@H](C)NC(=O)[C@@H](C)N)[C@@H](C)O)C(=O)N[C@@H](CCCCN)C(=O)N[C@@H](C)C(=O)N[C@@H](CCC(=O)O)C(=O)N[C@H](C)C(N)=O [Peptide 906.47] (H-[dA]A[Cha]AAAATLKAE[dA]-NH2; N-terminus and C-terminus assumed) | 25.5 |  | 60.2 | 
20 | CC(C)C[C@H](NC(=O)[C@@H](NC(=O)[C@H](CC(N)=O)NC(=O)[C@H](C)NC(=O)[C@H](Cc1c[nH]c2ccccc12)NC(=O)[C@@H](NC(=O)[C@H](CC1CCCCC1)NC(=O)[C@H](CCCCN)NC(=O)[C@@H](C)N)C(C)C)[C@@H](C)O)C(=O)N[C@@H](CCCCN)C(=O)N[C@@H](C)C(=O)N[C@@H](C)C(=O)N[C@H](C)C(N)=O [Peptide 965.031] |  |  |  | IC50 (DR5; Table IX): 8.3 nM; IC50 (DR5; Table IX, listed as 965.032): 2.9 nM; IC50 (DR7; Table IX): 208 nM
21 | CC(C)C[C@H](NC(=O)[C@@H](NC(=O)[C@H](Cc1c[nH]cn1)NC(=O)[C@H](C)NC(=O)[C@H](CCCCN)NC(=O)[C@@H](NC(=O)[C@H](CC1CCCCC1)NC(=O)[C@H](CCCCN)NC(=O)[C@@H](C)N)C(C)C)[C@@H](C)O)C(=O)N[C@@H](CCCCN)C(=O)N[C@@H](C)C(=O)N[C@@H](C)C(=O)N[C@H](C)C(N)=O [Peptide 965.071] |  |  |  | IC50 (DR5; Table IX): 10.5 nM; IC50 (DR5; Table IX, listed as 965.072): 4.8 nM; IC50 (DR7; Table IX, listed as 965.072): 556 nM

— patent US6413935B1, “Induction of immune response against desired determinants” (priority 1993, dated 2002)
